# Columns and labels:
# Plasminogen = Plasminogen (Homo sapiens, UniProt P00747); experiment: Inhibition of plasmin (unknown origin)
# [1] = biological target: Urokinase-type plasminogen activator (Homo sapiens, UniProt P00749); experiment: Inhibition of uPA (unknown origin)
# Prothrombin = Prothrombin (Homo sapiens, UniProt P00734); experiment: Inhibition of thrombin (unknown origin)
# [2] = Antitumor activity against rat BN472 cells implanted in Norwegian BN rat model of orthotopical breast cancer assessed as inhibition of tumor growth at 1 mg/kg/day, sc; format: functional; settings: read-out: TGI
# Coagulation factor X = Coagulation factor X (Homo sapiens, UniProt P00742); experiment: Inhibition of factor 10a (unknown origin)
# [3] = biological target: Tissue-type plasminogen activator (Homo sapiens, UniProt P00750); experiment: Inhibition of tPA (unknown origin)
# [4] = Drug level in blood of mouse LLC allografted in mouse at 100 mg/kg, ip; format: ADME, organism-based; settings: in vivo, read-out: Drug uptake
# [5] = system: Lewis lung carcinoma cell line; experiment: Antimetastatic activity against mouse LLC allografted in mouse assessed as reduction in tumor nodule numbers at 100 mg/kg, ip; format: functional; parameters: scale not given: the % may be the effect or the level left
# [6] = system: Lewis lung carcinoma cell line; experiment: Antitumor activity against mouse LLC allografted in C57Bl6/N mouse assessed as inhibition olf tumor growth at 200 mg/kg/day, ip; format: functional; settings: read-out: TGI
# Chain of Coagulation factor X (P00742 41-179 limits assumed): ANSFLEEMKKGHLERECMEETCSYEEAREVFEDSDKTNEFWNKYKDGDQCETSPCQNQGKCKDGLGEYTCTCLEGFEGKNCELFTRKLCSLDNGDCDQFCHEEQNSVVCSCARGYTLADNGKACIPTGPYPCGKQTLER
# Chain of Coagulation factor X (P00742 235-488 limits assumed): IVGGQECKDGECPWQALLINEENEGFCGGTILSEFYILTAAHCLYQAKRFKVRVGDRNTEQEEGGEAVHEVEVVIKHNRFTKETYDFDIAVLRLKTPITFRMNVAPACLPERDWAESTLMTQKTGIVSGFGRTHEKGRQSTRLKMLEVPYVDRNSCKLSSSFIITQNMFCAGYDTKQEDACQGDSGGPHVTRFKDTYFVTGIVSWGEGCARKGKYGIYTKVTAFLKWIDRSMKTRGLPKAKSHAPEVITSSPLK
# Chain of Tissue-type plasminogen activator (P00750 whole entry): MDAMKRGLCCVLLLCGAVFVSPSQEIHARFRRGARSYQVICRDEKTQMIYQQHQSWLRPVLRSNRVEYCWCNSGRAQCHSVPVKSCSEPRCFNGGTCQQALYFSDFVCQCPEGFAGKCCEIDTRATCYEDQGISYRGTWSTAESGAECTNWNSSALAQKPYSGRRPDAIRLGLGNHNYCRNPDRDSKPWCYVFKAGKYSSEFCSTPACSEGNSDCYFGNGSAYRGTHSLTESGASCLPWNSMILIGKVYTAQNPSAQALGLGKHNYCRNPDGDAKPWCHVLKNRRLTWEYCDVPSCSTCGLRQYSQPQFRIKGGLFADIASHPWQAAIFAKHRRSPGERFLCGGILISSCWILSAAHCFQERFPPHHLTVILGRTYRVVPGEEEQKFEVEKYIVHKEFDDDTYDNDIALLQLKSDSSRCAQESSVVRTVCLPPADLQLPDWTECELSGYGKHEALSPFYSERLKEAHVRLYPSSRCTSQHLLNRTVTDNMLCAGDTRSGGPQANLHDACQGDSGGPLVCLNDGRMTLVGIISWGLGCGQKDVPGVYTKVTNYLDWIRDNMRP
# Chain of Plasminogen (P00747 97-580 limits assumed): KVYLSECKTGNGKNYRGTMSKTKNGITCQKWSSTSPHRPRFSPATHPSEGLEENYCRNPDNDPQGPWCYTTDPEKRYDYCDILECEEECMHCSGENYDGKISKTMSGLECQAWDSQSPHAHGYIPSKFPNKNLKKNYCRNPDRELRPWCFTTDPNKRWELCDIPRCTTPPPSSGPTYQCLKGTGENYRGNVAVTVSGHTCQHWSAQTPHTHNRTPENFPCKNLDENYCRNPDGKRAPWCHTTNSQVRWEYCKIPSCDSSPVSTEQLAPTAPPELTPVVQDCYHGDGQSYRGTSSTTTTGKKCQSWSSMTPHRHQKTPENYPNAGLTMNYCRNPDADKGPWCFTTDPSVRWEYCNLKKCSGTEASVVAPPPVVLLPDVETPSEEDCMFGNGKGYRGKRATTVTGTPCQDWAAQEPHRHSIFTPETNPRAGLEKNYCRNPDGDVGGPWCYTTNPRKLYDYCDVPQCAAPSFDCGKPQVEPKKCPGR
# Chain of Plasminogen (P00747 581-810 limits assumed): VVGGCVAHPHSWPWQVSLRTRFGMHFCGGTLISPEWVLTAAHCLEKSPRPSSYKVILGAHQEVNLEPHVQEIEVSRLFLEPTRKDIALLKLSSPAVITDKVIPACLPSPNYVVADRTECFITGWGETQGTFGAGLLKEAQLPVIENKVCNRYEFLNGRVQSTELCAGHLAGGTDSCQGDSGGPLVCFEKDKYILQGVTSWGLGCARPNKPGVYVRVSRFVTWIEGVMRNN
SMILES,Ki (Plasminogen) [nM],Ki [1] [nM],Ki (Prothrombin) [nM],inhibition in vivo at 1 mg/kg/day [2] [%],Ki (Coagulation factor X) [nM],Ki [3] [nM],concentration [4] [µM],Activity [5] [%],inhibition in vivo at 200 mg/kg/day [6] [%]
CCOC(=O)N1CCN(C(=O)[C@H](Cc2cccc(C(=N)N)c2)NS(=O)(=O)c2c(C(C)C)cc(C(C)C)cc2C(C)C)CC1,1460,650,500,53,980,2510,–,–,–
N=C(N)c1ccc(CNC(=O)[C@H](CO)NC(=O)[C@@H](CO)NS(=O)(=O)Cc2ccccc2)cc1,–,–,–,–,–,–,1010,41.5,43

# Source: ChEMBL document CHEMBL4422663, “Suppression of Tumor Growth and Metastases by Targeted Intervention in Urokinase Activity with Cyclic Peptides” (J Med Chem, 2019)
